Like-named read-outs stand apart in the source and are kept apart here.
Biological target: T1, STRADα (Homo sapiens, UniProt Q7RTN6)
T1 construct: wild-type and mutant forms of STRADα (residues 54–431) and MO25α (residues 1–341) were expressed individually as GST fusion proteins in E. coli; GST (cleaved yes); made in house; host or cells: E. coli
T1 sequence (Q7RTN6 54-431): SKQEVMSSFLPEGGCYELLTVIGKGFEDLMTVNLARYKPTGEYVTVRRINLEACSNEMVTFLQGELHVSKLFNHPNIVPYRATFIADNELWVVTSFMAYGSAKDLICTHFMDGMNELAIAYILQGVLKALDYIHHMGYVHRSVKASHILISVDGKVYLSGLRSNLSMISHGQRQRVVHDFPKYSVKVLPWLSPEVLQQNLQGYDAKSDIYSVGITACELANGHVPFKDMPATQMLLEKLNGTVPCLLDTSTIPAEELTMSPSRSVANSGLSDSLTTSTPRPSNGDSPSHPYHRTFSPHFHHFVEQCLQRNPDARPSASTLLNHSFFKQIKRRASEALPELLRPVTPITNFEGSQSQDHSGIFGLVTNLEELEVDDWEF
Test: Displacement of TNP-ATP by ATP and ADP (fluorescence)
Assay type: binding
Conditions: STRADα alone, No Mg2+, displacement of 5 µM TNP-ATP
Protocol: Fluorescent measurements of TNP-ATP (Molecular Probes), were obtained at 25°C in assay buffer (with the addition of 0.5–1.0 mM MgCl2 where indicated) using 1-cm pathlength cuvettes in a VARIAN Cary Eclipse Fluorescence spectrophotometer (Varian). Fluorescence was recorded using a 410-nm/540-nm excitation/emission wavelengths from 500 to 600 nm. In all cases, signal from the TNP-ATP buffer control was subtracted as background. For all binding studies, STRADα and STRADα mutants were assayed at 2 µM. In cases where STRADα/MO25α complexes were assayed, wild-type or mutant MO25α (2 µM) were preincubated for at least 2 h at 4°C prior to a fluorescence binding experiment. For saturation binding experiments, concentrated stocks of TNP-ATP were added stepwise, covering a range of concentrations from 0.05 to 30 µM. For displacement experiments, the concentration of TNP-ATP was fixed at 5 µM, and ATP or ADP was titrated in, covering a range of concentrations from 0.05 to 500 µM.
All data were analysed using GraphPad-PRISM software (http://www.graphpad.com). […] In the displacement studies, equilibrium constant values for ATP and ADP were calculated by first determining the logEC50 value, using a standard dose-response equation: F x/F max = minimum+(maximum−minimum)/(1+10^([N]−logEC 50 ^)), where [N] equals the concentration of added nucleotide, and F x/F max represents the fractional occupancy. […]

Row | Kd (read-out: Kd ADP) | Kd (read-out: Kd ATP) | Structure (SMILES)
1 | 2000 to 3000 nM | – | Nc1ncnc2c1ncn2[C@@H]1O[C@H](COP(=O)(O)OP(=O)(O)O)[C@@H](O)[C@H]1O [ADP]
2 | – | 2000 to 3000 nM | Nc1ncnc2c1ncn2[C@@H]1O[C@H](COP(=O)(O)OP(=O)(O)OP(=O)(O)O)[C@@H](O)[C@H]1O [ATP]

Source: article PMC2686265, “ATP and MO25α Regulate the Conformational State of the STRADα Pseudokinase and Activation of the LKB1 Tumour Suppressor” (PLoS Biology, 2009)
